Assay results reported in patent US20230081720A1, “MCL-1 INHIBITOR ANTIBODY-DRUG CONJUGATES AND METHODS OF USE” (NOVARTIS AG, priority 2019, published 2023).
pIC50: −log10 of the molar value. Structures can show the parent of a compound that is named as a salt. Where two headings read alike, the source gives them in different places.

Tests used:
EOL-1 = assay type: cell-based
Method: (§1) Cell lines were cultured in media that is optimal for their growth at 5% CO2, 37° C. in a tissue culture incubator. Prior to seeding for the proliferation assay, the cells were split at least 2 days before the assay to ensure optimal growth density. […] Cell viability and cell density were determined using a cell counter (Vi-Cell XR Cell Viability Analyzer, Beckman Coulter). […] Cells were seeded at a density of 1,000 cells per well in 45 μL of standard growth media. Plates were incubated at 5% CO2, 37° C. overnight in a tissue culture incubator. […] Each drug concentration was tested in quadruplets. […] Plates were incubated at room temperature for 10 minutes to stabilize luminescent signals prior to reading using a luminescence reader (EnVision Multilabel Plate Reader, PerkinElmer). To evaluate the effect of the drug treatments, luminescent counts from wells containing untreated cells (100% viability) were used to normalize treated samples.

NOMO-1 = assay type: cell-based
Method: as §1

[1] = CD74 ADC with the named linker-payload, 5 days
[2] = CD74 ADC with the named linker-payload, 5 days, read-out: EOL-1 IC50
[3] = CD74 ADC with the named linker-payload, 5 days, read-out: NOMO-1 IC50

**Q.** What does the source list for COc1ccccc1-c1nccc(COc2ccccc2C[C@@H](Oc2ncnc3sc(-c4ccc(F)cc4)c(-c4ccc(OCCN5CC[N+](C)(Cc6ccc(NC(=O)[C@H](CCCNC(N)=O)NC(=O)[C@@H](NC(=O)CCOCCN7C(=O)C=CC7=O)C(C)C)cc6CN(C)C(=O)CN(C)C(=O)CN(C)C(=O)CN(C)C(=O)CN(C)C(=O)CN(C)C(=O)CN(C)C(=O)CN(C)C(=O)CN(C)C(=O)CN(C)C(=O)CN(C)C(=O)CN(C)C(=O)CN(C)C(=O)CCC(=O)O)CC5)c(Cl)c4C)c23)C(=O)O)n1 [L35-P1]?
**A.** pIC50 (EOL-1): 9.05; EOL-1 Amax (EOL-1; [1]): 75.56; pIC50 (NOMO-1): 8.16; NOMO-1 Amax (NOMO-1; [1]): 62.73

**Q.** Which results are given for COc1ccccc1-c1nccc(COc2ccccc2C[C@@H](Oc2ncnc3sc(-c4ccc(F)cc4)c(-c4ccc(OCCN5CC[N+](C)(Cc6ccc(NC(=O)[C@H](CCCNC(N)=O)NC(=O)[C@@H](NC(=O)CCOCCN7C(=O)C=CC7=O)C(C)C)cc6COCc6cn(CCOC(=O)NS(=O)(=O)NCCOCCOCCOCCC(=O)O)nn6)CC5)c(Cl)c4C)c23)C(=O)O)n1 [L60-P1, trifluoroacetate]?
**A.** EOL-1 Amax (EOL-1; [1]): 79.04; pIC50 (EOL-1; [2]): 9.27; NOMO-1 Amax (NOMO-1; [1]): 76.94; pIC50 (NOMO-1; [3]): 8.58

**Q.** COc1ccccc1-c1nccc(COc2ccccc2C[C@@H](Oc2ncnc3sc(-c4ccc(F)cc4)c(-c4ccc(OCCN5CC[N+](C)(Cc6ccc(NC(=O)[C@H](CCCNC(N)=O)NC(=O)[C@@H](NC(=O)CCOCCN7C(=O)C=CC7=O)C(C)C)cc6COCc6cn(CCOC(=O)NS(=O)(=O)NCCOCCOCCO[C@@H]7O[C@H](CO)[C@@H](O)[C@H](O)[C@H]7O)nn6)CC5)c(Cl)c4C)c23)C(=O)O)n1 [L62-P1, trifluoroacetate] was tested. Which “EOL-1 Amax” value (EOL-1; [1]) did it give?
**A.** The value was 83.03.

**Q.** What about the pIC50 (EOL-1; [2]) of the same molecule?
**A.** Its pIC50 is 9.11.

**Q.** What about the “NOMO-1 Amax” value (NOMO-1; [1]) of the same molecule?
**A.** Its value is 65.18.

**Q.** And the pIC50 (NOMO-1; [3])?
**A.** The pIC50 was 8.47.

**Q.** For COc1ccccc1-c1nccc(COc2ccccc2C[C@@H](Oc2ncnc3sc(-c4ccc(F)cc4)c(-c4ccc(OCCN5CC[N+](C)(Cc6ccc(NC(=O)[C@H](CCCNC(N)=O)NC(=O)[C@@H](NC(=O)CCOCCN7C(=O)C=CC7=O)C(C)C)cc6COCc6cn(CCOC(=O)NS(=O)(=O)NCCOCCO[C@@H]7O[C@H](CO)[C@@H](O)[C@H](O)[C@H]7O)nn6)CC5)c(Cl)c4C)c23)C(=O)O)n1 [L63-P1, trifluoroacetate], which “NOMO-1 Amax” value (NOMO-1; [1]) is on record?
**A.** The value was 61.25.

**Q.** What about the pIC50 (NOMO-1; [3]) of the same molecule?
**A.** Its pIC50 is 9.15.

**Q.** Which results are given for COc1ccccc1-c1nccc(COc2ccccc2C[C@@H](Oc2ncnc3sc(-c4ccc(F)cc4)c(-c4ccc(OCCN5CC[N+](C)(Cc6ccc(NC(=O)[C@H](CCCNC(N)=O)NC(=O)[C@@H](NC(=O)CCOCCN7C(=O)C=CC7=O)C(C)C)cc6CN(C)C(=O)CN(CC(=O)O)CC(=O)O)CC5)c(Cl)c4C)c23)C(=O)O)n1 [L67-P1, 1-(2-((2-(bis(carboxymethyl)amino)-N-methylacetamido)methyl)-4-((S)-2-((S)-2-(3-(2-(2,5-dioxo-2,5-dihydro-1H-pyrrol-1-yl)ethoxy)propanamido)-3-methylbutanamido)-5-ureidopentanamido)benzyl)-4-(2-(4-(4-((R)-1-carboxy-2-(2-((2-(2-methoxyphenyl)pyrimidin-4-yl)methoxy)phenyl)ethoxy)-6-(4-fluorophenyl)thieno[2,3-d]pyrimidin-5-yl)-2-chloro-3-methylphenoxy)ethyl)-1-methylpiperazin-1-ium]?
**A.** pIC50 (EOL-1): 9.58; EOL-1 Amax (EOL-1; [1]): 119.3; pIC50 (NOMO-1): 8.60; NOMO-1 Amax (NOMO-1; [1]): 79.39

**Q.** Which “EOL-1 Amax” value (EOL-1; [1]) does the source give for COc1ccccc1-c1nccc(COc2ccccc2C[C@@H](Oc2ncnc3sc(-c4ccc(F)cc4)c(-c4ccc(OCCN5CC[N+](C)(Cc6ccc(NC(=O)[C@H](CCCNC(N)=O)NC(=O)[C@@H](NC(=O)CCOCCN7C(=O)C=CC7=O)C(C)C)cc6CN(C)C(=O)C[C@H](NC(=O)[C@@H]6O[C@H](O)[C@@H](O)[C@H](O)[C@H]6O)C(=O)O)CC5)c(Cl)c4C)c23)C(=O)O)n1 [L68-P1] here?
**A.** The value was 127.3.

**Q.** And the pIC50 (EOL-1; [2])?
**A.** The pIC50 was 9.10.

**Q.** What about the “NOMO-1 Amax” value (NOMO-1; [1]) of the same molecule?
**A.** Its value is 91.25.

**Q.** And the pIC50 (NOMO-1; [3])?
**A.** Its pIC50 is 8.16.

**Q.** With COc1ccccc1-c1nccc(COc2ccccc2C[C@@H](Oc2ncnc3sc(-c4ccc(F)cc4)c(-c4ccc(OCCN5CC[N+](C)(Cc6ccc(NC(=O)[C@H](CCCNC(N)=O)NC(=O)[C@@H](NC(=O)CCOCCN7C(=O)C=CC7=O)C(C)C)cc6CN(C)C(=O)C[C@H](NC(=O)OC6O[C@H](C(=O)O)[C@@H](O)[C@H](O)[C@H]6O)C(=O)O)CC5)c(Cl)c4C)c23)C(=O)O)n1 (stereo partly drawn) [L69-P1] as the molecule, how does the “EOL-1 Amax” value (EOL-1; [1]) read?
**A.** The value was 159.6.

**Q.** What about the pIC50 (EOL-1; [2]) of the same molecule?
**A.** The pIC50 was 9.15.

**Q.** What about the “NOMO-1 Amax” value (NOMO-1; [1]) of the same molecule?
**A.** The value was 95.03.

**Q.** What about the pIC50 (NOMO-1; [3]) of the same molecule?
**A.** Its pIC50 is 7.83.

**Q.** Which “EOL-1 Amax” value (EOL-1; [1]) does the source give for COc1ccccc1-c1nccc(COc2ccccc2C[C@@H](Oc2ncnc3sc(-c4ccc(F)cc4)c(-c4ccc(OCCN5CC[N+](C)(Cc6ccc(NC(=O)[C@H](CCCNC(N)=O)NC(=O)[C@@H](NC(=O)CCOCCN7C(=O)C=CC7=O)C(C)C)cc6CN(C)C(=O)[C@H](CCC(=O)O)NC(=O)CS(=O)(=O)O)CC5)c(Cl)c4C)c23)C(=O)O)n1 [L71-P1, 4-(2-(4-(4-((R)-1-carboxy-2-(2-((2-(2-methoxyphenyl)pyrimidin-4-yl)methoxy)phenyl)ethoxy)-6-(4-fluorophenyl)thieno[2,3-d]pyrimidin-5-yl)-2-chloro-3-methylphenoxy)ethyl)-1-(2-(((S)-4-carboxy-N-methyl-2-(2-sulfoacetamido)butanamido)methyl)-4-((S)-2-((S)-2-(3-(2-(2,5-dioxo-2,5-dihydro-1H-pyrrol-1-yl)ethoxy)propanamido)-3-methylbutanamido)-5-ureidopentanamido)benzyl)-1-methylpiperazin-1-ium] here?
**A.** The value was 93.09.

**Q.** What about the pIC50 (EOL-1; [2]) of the same molecule?
**A.** Its pIC50 is 9.47.

**Q.** What about the “NOMO-1 Amax” value (NOMO-1; [1]) of the same molecule?
**A.** Its value is 53.62.

**Q.** And the pIC50 (NOMO-1; [3])?
**A.** The pIC50 was 8.01.

**Q.** With COCCOCCOCCOCCOCCOCCOCCOCCOCCOCCOCCOCCC(=O)N[C@@H](CCC(=O)O)C(=O)N(C)Cc1cc(NC(=O)[C@H](CCCNC(N)=O)NC(=O)[C@@H](NC(=O)CCOCCN2C(=O)C=CC2=O)C(C)C)ccc1C[N+]1(C)CCN(CCOc2ccc(-c3c(-c4ccc(F)cc4)sc4ncnc(O[C@H](Cc5ccccc5OCc5ccnc(-c6ccccc6OC)n5)C(=O)O)c34)c(C)c2Cl)CC1 [L72-P1] as the molecule, how does the “EOL-1 Amax” value (EOL-1; [1]) read?
**A.** The value was 109.8.

**Q.** And the pIC50 (EOL-1; [2])?
**A.** Its pIC50 is 9.41.

**Q.** What about the “NOMO-1 Amax” value (NOMO-1; [1]) of the same molecule?
**A.** The value was 57.68.

**Q.** How did the “EOL-1 Amax” value (EOL-1; [1]) turn out when COc1ccccc1-c1nccc(COc2ccccc2C[C@@H](Oc2ncnc3sc(-c4ccc(F)cc4)c(-c4ccc(OCCN5CC[N+](C)(Cc6ccc(NC(=O)[C@H](CCCNC(N)=O)NC(=O)[C@@H](NC(=O)CCOCCN7C(=O)C=CC7=O)C(C)C)cc6CN(C)C(=O)[C@H](CCCCNC(=O)CS(=O)(=O)O)NC(=O)CS(=O)(=O)O)CC5)c(Cl)c4C)c23)C(=O)O)n1 [L78-P1, 4-(2-(4-(4-((R)-1-carboxy-2-(2-((2-(2-methoxyphenyl)pyrimidin-4-yl)methoxy)phenyl)ethoxy)-6-(4-fluorophenyl)thieno[2,3-d]pyrimidin-5-yl)-2-chloro-3-methylphenoxy)ethyl)-1-(4-((S)-2-((S)-2-(3-(2-(2,5-dioxo-2,5-dihydro-1H-pyrrol-1-yl)ethoxy)propanamido)-3-methylbutanamido)-5-ureidopentanamido)-2-(((S)-N-methyl-2,6-bis(2-sulfoacetamido)hexanamido)methyl)benzyl)-1-methylpiperazin-1-ium] was run?
**A.** Its value is 87.22.

**Q.** And the pIC50 (EOL-1; [2])?
**A.** The pIC50 was 9.37.

**Q.** And the “NOMO-1 Amax” value (NOMO-1; [1])?
**A.** Its value is 53.4.

**Q.** And the pIC50 (NOMO-1; [3])?
**A.** The pIC50 was 8.43.

**Q.** What does the source list for COc1ccccc1-c1nccc(COc2ccccc2C[C@@H](Oc2ncnc3sc(-c4ccc(F)cc4)c(-c4ccc(OCCN5CC[N+](C)(Cc6ccc(NC(=O)[C@H](CCCNC(N)=O)NC(=O)[C@@H](NC(=O)CCOCCN7C(=O)C=CC7=O)C(C)C)cc6CN(C)C(=O)C[C@H](NC(=O)CS(=O)(=O)O)C(=O)O)CC5)c(Cl)c4C)c23)C(=O)O)n1 [L79-P1, 4-(2-(4-(4-((R)-1-carboxy-2-(2-((2-(2-methoxyphenyl)pyrimidin-4-yl)methoxy)phenyl)ethoxy)-6-(4-fluorophenyl)thieno[2,3-d]pyrimidin-5-yl)-2-chloro-3-methylphenoxy)ethyl)-1-(2-(((S)-3-carboxy-N-methyl-3-(2-sulfoacetamido)propanamido)methyl)-4-((S)-2-((S)-2-(3-(2-(2,5-dioxo-2,5-dihydro-1H-pyrrol-1-yl)ethoxy)propanamido)-3-methylbutanamido)-5-ureidopentanamido)benzyl)-1-methylpiperazin-1-ium]?
**A.** pIC50 (EOL-1): 9.31; EOL-1 Amax (EOL-1; [1]): 91.3; pIC50 (NOMO-1): 8.50; NOMO-1 Amax (NOMO-1; [1]): 56.07

**Q.** Which results are given for COc1ccccc1-c1nccc(COc2ccccc2C[C@@H](Oc2ncnc3sc(-c4ccc(F)cc4)c(-c4ccc(OCCN5CC[N+](C)(Cc6ccc(NC(=O)[C@H](CCCNC(N)=O)NC(=O)[C@@H](NC(=O)CCOCCN7C(=O)C=CC7=O)C(C)C)cc6CN(C)C(=O)[C@H](N)CS(=O)(=O)O)CC5)c(Cl)c4C)c23)C(=O)O)n1 [L86-P1]?
**A.** pIC50 (EOL-1): 9.14; EOL-1 Amax (EOL-1; [1]): 105.5; pIC50 (NOMO-1): 8.13; NOMO-1 Amax (NOMO-1; [1]): 74.52
